Results reported in patent publication US20230416298A1, “PRODRUGS OF NEUROACTIVE STEROIDS” (Brii Biosciences, Inc., priority 2020, published 2023).

Tests used:
[1] = Plasma stability; type: in vitro ADME; details: 37° C.; for Stability in Human Plasma Formation of parent compound: 2 μM, Yes/No; for half-life at 2 μM: pooled plasma, pH 7.4, human plasma, time points 0, 10, 30, 60 and 120 min
Procedure: The pooled frozen plasma was thawed in a water bath at 37° C. prior to experiment. Plasma was centrifuged at 4000 rpm for 5 min and the clots were removed if any. The pH will be adjusted to 7.4±0.1 if required.
Preparation of test compounds and positive control (propantheline bromide): 1 mM intermediate solution was prepared by diluting 10 μL of the stock solution with 90 μL MeOH; 1 mM intermediate of positive control Propantheline was prepared by diluting 10 μL of the stock solution with 90 μL ultrapure water. 100 μM dosing solution was prepared by diluting 20 μL of the intermediate solution (1 mM) with 180 μL MeOH. 98 μL of blank plasma was spiked with 2 μL of dosing solution (100 μM) to achieve 2 μM of the final concentration in duplicate and samples were incubated at 37° C. in a water bath. At each time point (0,10, 30, 60 and 120 min), 400 μL of stop solution (0.1% FA in MeOH containing 200 ng/mL tolbutamide and 200 ng/mL Labetalol) was added to precipitate protein and mixed thoroughly. Centrifuged sample plates at 4,000 rpm for 10 min. An aliquot of supernatant (100 μL) was transferred from each well to another plates.
Data analysis: The % remaining of test compound after incubation in plasma was calculated using following equation:
% Remaining=[…]×(PAR at appointed incubation time/PAR at T0 time)
where PAR is the peak area ratio of analyte versus internal standard (IS) (LC/MS/MS mobile phase condition: 0.1% Formic Acid in Water/0.1% Formic Acid in Acetonitrile. The appointed incubation time points are TO (0 min), Tn (n=0, 10, 30, 60, 120 min).

[2] = Liver S9 stability; type: in vitro ADME; details: human liver S9, 37° C.; for half-life at 1 μM: time points up to 60 min; for Stability in Human Liver S9 Formation of parent compound: Yes/No
Procedure: Intermediate solution: Dilute 5 μL of compounds or controls (7-ethoxycoumarin) from stock solution (10 mM) with 495 μL MeOH (Conc.: 100 μM, 1% DMSO, 99% MeOH). Stop solution: Cold ACN (including 100 ng/mL Tolbutamide and Labetalol as internal standard). Add 2 μL test compound or control working solution/well to all plates (T0, T5, T10, T20, T30, T60, NCF60) except matrix blank. Add 600 μL/well stop solution (cold in 4° C., including 100 ng/mL Tolbutamide/100 ng/mL Labetalol) to terminate the TO plate, then put it on ice. Dispense 840 μL/well S9 solution to 96-well plate as reservoir according to plate map. Then add 100 μL/well to every plate by Apricot. Incubate S9 solution and compound at 37° C. for about 10 min except NCF60 and TO. After adding S9 solution and 98 μ LPB buffer to NCF60, incubate at 37° C. without pre-warming, start timer 1. After 60 min, add 600 μL/well stop solution to terminate the reaction. After pre-warming, dispense 760 μL/well cofactor solution to 96-well plate as reservoir according to plate map. Then add 98 μL/well to every plate by Apricot to start reaction. Incubate at 37° C., start timer 2, Add 600 μL/well stop solution (cold in 4° C., including 100 ng/mL Tolbutamide and Labetalol) to terminate the reaction. Samples are centrifuged at 4000 rpm for 20 min. While centrifuging, load 8×new 96-well plate with 300 μL HPLC water, then transfer 100 μL supernatant, mix with water for LC/MS/MS, transferred to Bioanalytical Services for LC-MS/MS analysis. Use equation of first order kinetics to calculate t1/2 and CL: Equation of first order kinetics: […]

| SMILES | Stability in Human Plasma Formation of parent compound [1] | half-life at 2 μM [1] [min] | half-life at 1 μM [2] [min] | Stability in Human Liver S9 Formation of parent compound [2] |
| --- | --- | --- | --- | --- |
| CCCCCC(=O)O[C@@H]1CC[C@@]2(C)[C@@H](CC[C@@H]3[C@@H]2CC[C@]2(C)[C@@H](C(C)=O)CC[C@@H]32)C1 [Example 1, [(3R,5S,8R,9S,10S,13S,14S,17S)-17-acetyl-10,13-dimethyl-2,3,4,5,6,7,8,9,11,12,14,15,16,17-tetradecahydro-1H-cyclopenta[a]phenanthren-3-yl]hexanoate] | No | > 200 | < 50 | No |
| CCCCCCC(=O)O[C@@H]1CC[C@@]2(C)[C@@H](CC[C@@H]3[C@@H]2CC[C@]2(C)[C@@H](C(C)=O)CC[C@@H]32)C1 [Example 2, [(3R,5S,8R,9S,10S,13S,14S,17S)-17-acetyl-10,13-dimethyl-2,3,4,5,6,7,8,9,11,12,14,15,16,17-tetradecahydro-1H-cyclopenta[a]phenanthren-3-yl]heptanoate] | No | > 200 | < 50 | No |
| CC(=O)[C@H]1CC[C@H]2[C@@H]3CC[C@H]4C[C@H](OC(=O)CC5CCCC5)CC[C@]4(C)[C@H]3CC[C@]12C [Example 8, [(3R,5S,8R,9S,10S,13S,14S,17S)-17-acetyl-10,13-dimethyl-2,3,4,5,6,7,8,9,11,12,14,15,16,17-tetradecahydro-1H-cyclopenta[a]phenanthren-3-yl] 3-cyclopentylacetate] | No | > 200 | < 50 | No |
| CC(=O)OCCCC(=O)O[C@@H]1CC[C@@]2(C)[C@@H](CC[C@@H]3[C@@H]2CC[C@]2(C)[C@@H](C(C)=O)CC[C@@H]32)C1 [Example 14, [(3R,5S,8R,9S,10S,13S,14S,17S)-17-acetyl-10,13-dimethyl-2,3,4,5,6,7,8,9,11,12,14,15,16,17-tetradecahydro-1H-cyclopenta[a]phenanthren-3-yl]4-acetoxybutanoate] | No | 50 to 200 | < 50 | No |
| CC(=O)[C@H]1CC[C@H]2[C@@H]3CC[C@H]4C[C@H](OC(=O)CCCOC(=O)C(C)C)CC[C@]4(C)[C@H]3CC[C@]12C [Example 15, [(3R,5S,8R,9S,10S,13S,14S,17S)-17-acetyl-10,13-dimethyl-2,3,4,5,6,7,8,9,11,12,14,15,16,17-tetradecahydro-1H-cyclopenta[a]phenanthren-3-yl]4-(2-methylpropanoyloxy)butanoate] | No | 50 to 200 | < 50 | No |
| CC(=O)OCCCCC(=O)O[C@@H]1CC[C@@]2(C)[C@@H](CC[C@@H]3[C@@H]2CC[C@]2(C)[C@@H](C(C)=O)CC[C@@H]32)C1 [Example 16, [(3R,5S,8R,9S,10S,13S,14S,17S)-17-acetyl-10,13-dimethyl-2,3,4,5,6,7,8,9,11,12,14,15,16,17-tetradecahydro-1H-cyclopenta[a]phenanthren-3-yl] 5-acetoxypentanoate] | No | 50 to 200 | < 50 | No |
| CC(=O)OCCCC(C)C(=O)O[C@@H]1CC[C@@]2(C)[C@@H](CC[C@@H]3[C@@H]2CC[C@]2(C)[C@@H](C(C)=O)CC[C@@H]32)C1 (stereo partly drawn) [Example 17, [(3R,5S,8R,9S,10S,13S,14S,17S)-17-acetyl-10,13-dimethyl-2,3,4,5,6,7,8,9,11,12,14,15,16,17-tetradecahydro-1H-cyclopenta[a]phenanthren-3-yl]5-acetoxy-2-methyl-pentanoate] | No | 50 to 200 | < 50 | No |
| CC(=O)[C@H]1CC[C@H]2[C@@H]3CC[C@H]4C[C@H](OC(=O)OCCOC(=O)C(C)C)CC[C@]4(C)[C@H]3CC[C@]12C [Example 19, 2-[[(3R,5S,8R,9S,10S,13S,14S,17S)-17-acetyl-10,13-dimethyl-2,3,4,5,6,7,8,9,11,12,14,15,16,17-tetradecahydro-1H-cyclopenta[a]phenanthren-3-yl]oxycarbonyloxy]ethyl 2-methylpropanoate] | No | 50 to 200 | < 50 | Yes |
| CC(=O)[C@H]1CC[C@H]2[C@@H]3CC[C@H]4C[C@H](OC(=O)OCc5oc(=O)oc5C)CC[C@]4(C)[C@H]3CC[C@]12C [Example 20, [(3R,5S,8R,9S,10S,13S,14S,17S)-17-acetyl-10,13-dimethyl-2,3,4,5,6,7,8,9,11,12,14,15,16,17-tetradecahydro-1H-cyclopenta[a]phenanthren-3-yl](5-methyl-2-oxo-1,3-dioxol-4-yl)methyl carbonate] | Yes | < 50 | < 50 | Yes |
| CCCCOC(=O)O[C@@H]1CC[C@@]2(C)[C@@H](CC[C@@H]3[C@@H]2CC[C@]2(C)[C@@H](C(C)=O)CC[C@@H]32)C1 [Example 21, [(3R,5S,8R,9S,10S,13S,14S,17S)-17-acetyl-10,13-dimethyl-2,3,4,5,6,7,8,9,11,12,14,15,16,17-tetradecahydro-1H-cyclopenta[a]phenanthren-3-yl]butyl carbonate] | No | > 200 | < 50 | Yes |
| CC(=O)[C@H]1CC[C@H]2[C@@H]3CC[C@H]4C[C@H](OC(=O)NCCOC(=O)C(C)C)CC[C@]4(C)[C@H]3CC[C@]12C [Example 22, 2-[[(3R,5S,8R,9S,10S,13S,14S,17S)-17-acetyl-10,13-dimethyl-2,3,4,5,6,7,8,9,11,12,14,15,16,17-tetradecahydro-1H-cyclopenta[a]phenanthren-3-yl]oxycarbonylamino]ethyl 2-methylpropanoate] | No | > 200 | < 50 | Yes |
| CC(=O)[C@H]1CC[C@H]2[C@@H]3CC[C@H]4C[C@H](OC(=O)N(C)CCOC(=O)C(C)C)CC[C@]4(C)[C@H]3CC[C@]12C [Example 23, 2-[[(3R,5S,8R,9S,10S,13S,14S,17S)-17-acetyl-10,13-dimethyl-2,3,4,5,6,7,8,9,11,12,14,15,16,17-tetradecahydro-1H-cyclopenta[a]phenanthren-3-yl]oxycarbonyl-methyl-amino]ethyl 2-methylpropanoate] | No | 50 to 200 | < 50 | Yes |
| CC(=O)[C@H]1CC[C@H]2[C@@H]3CC[C@H]4C[C@H](OC(=O)OCCNC(=O)C(C)C)CC[C@]4(C)[C@H]3CC[C@]12C [Example 24, [(3R,5S,8R,9S,10S,13S,14S,17S)-17-acetyl-10,13-dimethyl-2,3,4,5,6,7,8,9,11,12,14,15,16,17-tetradecahydro-1H-cyclopenta[a]phenanthren-3-yl] 2-(2-methylpropanoylamino)ethyl carbonate)] | No | > 200 | < 50 | No |
